From patent US20220288065A1, “MONOCYCLIC AGONISTS OF STIMULATOR OF INTERFERON GENES STING” (The Scripps Research Institute, priority 2019, published 2022)

Test system: THP-1 Lucia ISG cells
Assay: ISG-LUC activation assay (ISRE-luciferase assay)
Type: cell-based
Settings: Homo sapiens, THP1-Lucia ISG, activity score based upon potency and efficacy data, 24 hours
From the text: We have established a robust platform for identifying non-nucleotide small molecule STING agonists. This has been established using a primary assay involving a human THP-1 cell line carrying an IRF-inducible reporter with 5 copies of the IFN signaling response element. Counter screens, involving alternative reporter constructs, rodent cell-based assays, as well as cGAS and STING knock-out cell lines, are used to eliminate luciferase artifacts and ensure human-rodent cross species reactivity, as well as pathway selectivity. Biochemical assays, involving cGAS enzymatic activity and STING protein binding assays, are used to identify the specific target of identified hits.
Tissue culture. Wild-type (cat. no. thpl-isg) and STING KO (cat. no. thpd-kostg) THP-1-Lucia ISG cells were purchased from Invivogen and maintained in growth media consisting of RPMI 1640, 2 mM L-glutamine, 25 mM HEPES, 10% heat-inactivated fetal bovine serum (FBS), 1,000 units/ml penicillin, 1,000 μg/ml streptomycin, 0.25 μg/ml Amphotericin B, and 100 μg/ml zeocin unless otherwise stated.
ISRE-luciferase assay. THP-1 Lucia ISG cells were resuspended in low-serum growth media (2% FBS) at a density of 5×10^5 cells/ml and treated with test article or vehicle (DMSO). 50 μL of cells were seeded into each well of a 384-well white greiner plates and incubated for 24 hours. To evaluate expression of the luciferase reporter, 30 μl of Quanti-luc (Invivogen) detection reagent was added to each well and luminescence was read using an Envision plate reader (Perkin Elmer) set with an integration time of 0.1 seconds.

Structure (SMILES)	EC50 [nM]
COC(=O)NCCNc1cc(C(=O)Nc2cc(F)c(F)cc2C(=O)OCc2ccc(OC)cc2)nnc1-n1ccnc1 [Compound 61]	> 1000
O=C(Nc1cc(F)c(F)cc1C(=O)O)c1ccc(-c2cn[nH]c2)nn1 [Compound 63]	> 1000
O=C(Nc1cc(Cl)c(Cl)cc1C(=O)O)c1cn(-c2cn[nH]c2)nn1 [Compound 64]	> 1000
COC(=O)c1cc(F)c(F)cc1NC(=O)c1cc(CN)c(-n2ccnc2)nn1 [Compound 65]	> 1000
O=C(Nc1cc(F)c(Cl)cc1C(=O)O)c1ccc(-c2cn[nH]c2)nn1 [Compound 66]	> 1000
O=C(Nc1cc(Cl)c(F)cc1C(=O)O)c1ccc(-c2cn[nH]c2)nn1 [Compound 67]	> 1000
COC(=O)c1cc(C#N)c(Cl)cc1NC(=O)c1ccc(-c2cn[nH]c2)nn1 [Compound 68]	< 900
COC(=O)c1cc(F)c(Cl)cc1NC(=O)c1ccc(-c2cn[nH]c2)nn1 [Compound 69]	< 900
N#Cc1cc(C(=O)O)c(NC(=O)c2ccc(-c3cn[nH]c3)nn2)cc1Cl [Compound 70]	> 20000
COC(=O)c1cc(C#N)c(C#N)cc1NC(=O)c1ccc(-c2c(C#N)cnn2C)nn1 [Compound 71]	> 20000
N#Cc1cc(C(=O)O)c(NC(=O)c2ccc(-c3c[nH]nn3)nn2)cc1Cl [Compound 72]	> 20000
COC(=O)c1cc(Cl)c(Cl)cc1NC(=O)c1ccc(-c2nn(C)cc2C#N)nn1 [Compound 73]	> 20000
COC(=O)c1cc(Cl)c(Cl)cc1NC(=O)c1cc(CCCN)c(-n2ccnc2)nn1 [Compound 74]	> 1000
C#Cc1cc2nc(-c3ccc(-n4ccnc4)nn3)oc(=O)c2cc1F [Compound 75]	< 900
C#Cc1cc(NC(=O)c2ccc(-n3ccnc3)nn2)c(C(=O)OCC)nc1Cl [Compound 76]	< 900
C#Cc1cc(NC(=O)c2ccc(-n3ccnc3)nn2)c(C(=O)O)nc1Cl [Compound 77]	< 900
C#Cc1cc(NC(=O)c2ccc(-c3ccncc3)nn2)c(C(=O)O)cc1Cl [Compound 78]	< 900
C#Cc1cc(NC(=O)c2ccc(-n3ccnc3)nn2)c(C(=O)O)cc1F [Compound 79]	< 900
C#Cc1cc2nc(-c3ccc(-n4ccnc4)nn3)oc(=O)c2cc1Cl [Compound 80]	< 900
N#Cc1cc(C(=O)O)c(NC(=O)c2ccc(-n3ccnc3)nn2)cc1Cl [Compound 99]	< 3000

Next, values leading:

EC50 [nM]	Structure (SMILES)
< 900	C#Cc1cc(NC(=O)c2ccc(-n3ccnc3)nn2)c(C(=O)O)cc1Cl [Compound 81]
< 900	O=C(Nc1cc(Cl)c(Cl)nc1C(=O)O)c1ccc(-n2ccnc2)nn1 [Compound 82]
< 900	C#Cc1cc(NC(=O)c2ccc(-c3cn[nH]c3)nn2)c(-c2c(O)c(=O)c2=O)cc1F [Compound 83]
> 1000	C#Cc1cc(NC(=O)c2ccc(-c3cn[nH]c3)nn2)c(-c2nn[nH]n2)cc1F [Compound 84]
< 900	C#Cc1cc(NC(=O)c2ccc(-n3ccnc3)nn2)c(C(=O)OCC)cc1F [Compound 85]
< 900	C#Cc1cc(NC(=O)c2ccc(-n3ccnc3)nn2)c(C(=O)OC(C)OC(=O)OCC)cc1F (centres unmarked) [Compound 86]
< 900	CC#Cc1cc(NC(=O)c2ccc(-n3ccnc3)nn2)c(C(=O)O)cc1F [Compound 87]
< 900	C=Cc1cc(NC(=O)c2ccc(-n3ccnc3)nn2)c(C(=O)O)cc1F [Compound 88]
< 900	C/C=C/c1cc(NC(=O)c2ccc(-n3ccnc3)nn2)c(C(=O)O)cc1F [Compound 89]
< 3000	C#Cc1cc(NC(=O)c2ccc(-n3ccnc3)nn2)c(C(=O)O)nc1C [Compound 90]
> 1000	Cc1nc(C(=O)O)c(NC(=O)c2ccc(-n3ccnc3)nn2)cc1Cl [Compound 91]
< 900	C#Cc1cc(NC(=O)c2ccc(-n3ccnc3)nn2)c(C(=O)O)nc1F [Compound 92]
< 3000	C#Cc1cc2nc(-c3ccc(-n4ccnc4)nn3)oc(=O)c2nc1Cl [Compound 93]
< 900	C#Cc1cc(NC(=O)c2ccc(-n3ccnc3)nn2)c(C(=O)OC(OC(=O)C(C)C)C(C)C)cc1F (centres unmarked) [Compound 94]
< 900	CC#Cc1cc(NC(=O)c2ccc(-n3ccnc3)nn2)c(C(=O)OCC)nc1Cl [Compound 95]
> 1000	C#Cc1cc(NC(=O)c2ccc(-n3ccnc3)nn2)c(C(=O)OC(C)C)cc1F [Compound 96]
< 900	C#Cc1cc(NC(=O)c2ccc(-n3ccnc3)nn2)c(C(=O)OC(C)C)nc1Cl [Compound 97]
< 900	C#Cc1cc(NC(=O)c2ccc(-n3ccnc3)nn2)c(C(=O)OCCN2CCOCC2)nc1Cl [Compound 98]
< 3000	C#Cc1cc(NC(=O)c2ccc(-n3ccnc3)nn2)c(C(=O)O)cc1C#N [Compound 100]
< 900	C/C=C/c1cc(NC(=O)c2ccc(-n3ccnc3)nn2)c(C(=O)O)nc1Cl [Compound 101]
< 900	C#Cc1cc(NC(=O)c2ccc(-n3ccnc3)nn2)c(C(=O)OC(C)OC(=O)OCC)nc1Cl (centres unmarked) [Compound 102]
< 900	C#Cc1cc(NC(=O)c2ccc(-n3ccnc3)nn2)c(C(=O)OCCN2CCOCC2)cc1F [Compound 103]
< 900	CC#Cc1cc(NC(=O)c2ccc(-n3ccnc3)nn2)c(C(=O)O)nc1Cl [Compound 104]
> 1000	C#Cc1cc(NC(=O)c2ccc(-n3ccnc3)nn2)c(C(=O)NCCO)nc1Cl [Compound 105]
> 20000	C#Cc1cc(NC(=O)c2ccc(-n3ccnc3)nn2)c(C(=O)NCCO)cc1F [Compound 106]
< 900	C#Cc1cc(NC(=O)c2ccc(-n3ccnc3)nn2)c(C(=O)OC)nc1C#N [Compound 107]
> 20000	C#Cc1cc(NC(=O)c2ncc(-c3cn[nH]c3)cn2)c(C(=O)O)cc1F [Compound 108]
